Test [1] concerns Human alphaherpesvirus 1. Nature of the test: Antiherpes activity was tested as percent of control of plaque-formation against ACG (Tr7) virus by 30 uM of the compound. It is filed as functional, acycloguanosine resistant strain.
The test system of test [2] is Human alphaherpesvirus 1. Nature of the test: Antiherpes activity was tested as percent of control of plaque-formation against HSV-1 (CL101) virus by 30 uM of the compound. It counts as functional.
The test system of test [3] is Human alphaherpesvirus 2. Nature of the test: Antiherpes activity was tested as percent of control of plaque-formation against HSV-2 (333) virus by 30 uM of the compound. It counts as functional.
The subject of test [4] is Human alphaherpesvirus 1. Nature of the test: Antiherpes activity was tested as percent of control of plaque-formation against HSV-1 (KOS) virus by 30 uM of the compound. It is filed as functional.
Test [5] relates to Human alphaherpesvirus 1. Nature of the test: Antiherpes activity was tested as percent of control of plaque-formation against ACG (S1) virus by 30 uM of the compound. It counts as functional, acycloguanosine resistant strain.
In test [6] the test system is Human alphaherpesvirus 1. Nature of the test: Antiherpes activity was tested as percent of control of plaque-formation against BVdUr virus by 30 uM of the compound. It counts as functional, bromovinyl deoxyuridine resistant strain.
Test [7] deals with Human alphaherpesvirus 1. Nature of the test: Antiherpes activity was tested as percent of control of plaque-formation against ACG (Tr7) virus by 100 uM of the compound. It is filed as functional, acycloguanosine resistant strain.
The subject of test [8] is Human alphaherpesvirus 1. Nature of the test: Binding affinity against HSV-1(KOS). It is filed as functional, organism-based.
Test [9] in a line: Antiherpes activity was tested as percent of control of plaque-formation against PFAr virus by 100 uM of the compound. It is filed as functional, Herpes simplex virus unknown type.
Test [10] concerns Human alphaherpesvirus 1. Nature of the test: Antiherpes activity was tested as percent of control of plaque-formation against HSV-1 (KOS) virus by 100 uM of the compound. It is filed as functional.
The test system of test [11] is Human alphaherpesvirus 1. Nature of the test: Antiherpes activity was tested as percent of control of plaque-formation against HSV-1 (CL101) virus by 100 uM of the compound. It is filed as functional.
The test system of test [12] is Human alphaherpesvirus 2. Nature of the test: Antiherpes activity was tested as percent of control of plaque-formation against HSV-2 (333) virus by 100 uM of the compound. It counts as functional.
The subject of test [13] is Human alphaherpesvirus 2. Nature of the test: Antiherpes activity was tested as percent of control of plaque-formation against HSV-2 (CEU-G) virus by 100 uM of the compound. It is filed as functional.
Test [14] concerns Human alphaherpesvirus 1. Nature of the test: Antiherpes activity was tested as percent of control of plaque-formation against ACG (S1) virus by 100 uM of the compound. It counts as functional, acycloguanosine resistant strain.
Test [15] relates to Human alphaherpesvirus 2. Nature of the test: Binding affinity against HSV-2(333). It counts as functional, organism-based.
Test [16] deals with Human alphaherpesvirus 1. Nature of the test: Antiherpes activity was tested as percent of control of plaque-formation against BVdUr virus by 100 uM of the compound. It counts as functional, bromovinyl deoxyuridine resistant strain.
Test [17] deals with Human alphaherpesvirus 1. Nature of the test: Antiherpes activity was tested as percent of control of plaque-formation against ACG (S1) virus by 5 uM of the compound. It counts as functional, acycloguanosine resistant strain.
For test [18], the system named is Human alphaherpesvirus 1. Nature of the test: Antiherpes activity was tested as percent of control of plaque-formation against BVdUr virus by 5 uM of the compound. It counts as functional, bromovinyl deoxyuridine resistant strain.
Test [19] has as its system Human alphaherpesvirus 1. Nature of the test: Antiherpes activity was tested as percent of control of plaque-formation against HSV-1 (KOS) virus by 5 uM of the compound. It counts as functional.
For test [20], the system named is Human alphaherpesvirus 1. Nature of the test: Antiherpes activity was tested as percent of control of plaque-formation against ACG (Tr7) virus by 5 uM of the compound. It is filed as functional, acycloguanosine resistant strain.
A short description of test [21]: Antiherpes activity was tested as percent of control of plaque-formation against PFAr virus by 5 uM of the compound. It is filed as functional, Herpes simplex virus unknown type.

SMILES strings stand for the structures.

On to `O=c1[nH]c(=O)n([C@H]2C[C@H](O)[C@@H](CO)O2)cc1/C=C/Br` [BRIVUDINE], for which the Control in the test on Human alphaherpesvirus 1 [1] came out at 0.8%; in the test with Human alphaherpesvirus 1 [2], 0.4%; in the test on Human alphaherpesvirus 2 [3], 1.7%; in the test with Human alphaherpesvirus 1 [4], 0.1%; in the test on Human alphaherpesvirus 1 [5], 3.7%; with Human alphaherpesvirus 1 [6] it was 52%.

With `O=c1[nH]c(=O)n([C@H]2C[C@H](O)[C@@H](CO)O2)cc1I` [IDOXURIDINE], the Control turned out to be 2.6% with Human alphaherpesvirus 1 [7]; 0.1% in test [9]; 0.27% in the test on Human alphaherpesvirus 1 [10]; 1.6% in the test on Human alphaherpesvirus 1 [11]; 2.8% in the test on Human alphaherpesvirus 2 [12]; 9.3% in the test with Human alphaherpesvirus 2 [13]. Besides, the Control with Human alphaherpesvirus 1 [14] was 22%; in the test with Human alphaherpesvirus 1 [16], 14%. The Ki with Human alphaherpesvirus 1 [8] is 1.84 µM; in the test with Human alphaherpesvirus 2 [15], 3.98 µM.

`Nc1nc2c(ncn2COCCO)c(=O)[nH]1` [ACYCLOVIR]: the Control worked out at 100% in the test with Human alphaherpesvirus 1 [17]; 0.7% with Human alphaherpesvirus 1 [18]; 6.5% in the test on Human alphaherpesvirus 1 [19]; 85% with Human alphaherpesvirus 1 [20]; 100% in test [21].

These data come from ChEMBL document CHEMBL1122901, “Synthesis and biological activities of 2-pyrimidinone nucleosides. 2. 5-Halo-2-pyrimidinone 2'-deoxyribonucleosides” (J Med Chem, 1985).
